Laboratory results as given in patent publication US12029738B2, “Antiproliferative compounds and methods of use thereof” (Celgene Corporation, priority 2017, dated 2024).
“And” between values parts separate entries of the source, which are not always exact repeats. Equal values may be shown once. Read-outs that look alike come from different tables or passages of the source.

Legend:
[1] = molecular target: T1, dopamine D2S receptor (Homo sapiens, UniProt P14416); assay: Dopamine D2S receptor agonist assay (impedance, HEK-293); format: cell-based
T1 construct: host or cells: HEK-293 cells (membrane homogenates)
Method: (§1) α1 Adrenergic and Dopamine D2 Receptors. Methods: Binding and functional assays for α1 adrenergic and dopamine D2 receptors were performed by Eurofins Cerep according to their methods.
Agonist activity. The agonism of test compounds on the dopamine D2S receptor was assessed using human receptor-transfected HEK-293 cells. Agonist activity was determined by measuring compound effect on impedance modulation. In these experiments, HEK-293 cells were incubated in duplicate at 28° C. with test article. Compound A was tested at 0.01-30 μM. […] Dopamine (3 μM) was used as an agonist control. Impedance measurements were monitored for 10 minutes after ligand addition using cellular dielectric spectroscopy. The EC50 was defined as the concentration causing a half-maximum response, compared to the control agonist (dopamine) response.

[2] = tested on: NCI-H929-1051 (lenalidomide-resistant); assay: Cell proliferation assay (CTG, 120 h); format: cell-based, human; details: for IC50: Homo sapiens, 120 h
Method: Cell Culture Materials: Human multiple myeloma cell lines were purchased from the vendors and cultured at 37° C. with 5% CO2 in the media as indicated in Table 1. Lenalidomide and pomalidomide resistant cell lines were obtained by methods as generally described previously (Lopez-Girona et al Leukemia 2012; 26(11): 2335). All cell lines were kept in log phase, and cell density and viability were monitored by trypan blue exclusion using the Vi-cell XR cell viability analyzer (Beckman Coulter, Brea, CA).
Preparation of Solutions of Test Article: Compounds were plated into black 384-well plates (Corning Inc.) to a final DMSO volume of 0.1% assuming a maximal volume of 50 μL. A 10-point dose response starting at 10 μM with a 1:3 dilution was printed in duplicate by acoustic dispense using the EDC ATS-100 platform. Alternatively, the 10-point dose response starting at 10 μM with a 1:10 dilution, or starting at 100 nM with a 1:3 dilutions were used.
Cell Proliferation Assays: The effect of compounds on the proliferation/viability of the hematological cell lines (Table 1), was assessed after 120 h incubation using CTG (Promega), according to manufacturer's instructions. Hematological cell lines were dispensed into compound plates by a Multidrop Combi Reagent Dispenser (Thermo Scientific, Waltham, MA) at a concentration of 0.1×10^6 cells per mL in a 50 μL total volume. At 120 h, 25 μL per well of CTG was dispensed by a Multidrop Combi Reagent Dispenser and adenosine triphosphate (ATP) release by viable cells was measured as relative luminescence units after 30 minutes using the Envision platform.
Results. […] The MM cell lines selected for this study were lines sensitive and resistant to lenalidomide and/or pomalidomide (Table 1), two agents used in the clinic to treat myeloma patients. Proliferation was assessed using the CellTitre-Glo© assay. Results for cultures incubated with the compounds were normalized to results for control cultures for each cell line. The IC50 for inhibition of cell growth by the compounds was determined for each cell line using ActivityBase software.
Combination with Dexamethasone. The activity of pomalidomide with that of Compound 2 alone or in combination with dexamethasone was evaluated across a panel of MM cell lines. […] Table 3 summarizes the potency (IC50) of the single agent and dexamethasone combination studies performed in the H929-1051 cell line. […] Each IC50 is the average from at least 3 independent experiments. Proliferation was monitored on Day 5 using Cell Titer-Glo.

[3] = molecular target: T2, dopamine D2L receptor (Homo sapiens, UniProt P14416); assay: Dopamine D2L receptor radioligand binding (HEK-293)
T2 construct: host or cells: HEK-293 cells (membrane homogenates)
Method: as §1
Dopamine D2 Receptor. Binding at 10 μM. The binding assay evaluated the affinity of test articles for the dopamine D2 receptor in transfected human embryonic kidney (HEK)-293 cells. For determining the binding in the D2S receptor assay, test article was incubated with 0.3 nM [^3H] methylspiperone or 1 nM [^3H] 7-hydroxy-2-N,N-dipropylaminotetralin (7-OH-DPAT). [3H] Methylspiperone at 0.3 nM also was used as control ligand in the D2L binding assay. Cell membrane homogenates were incubated in duplicate at room temperature for 60 minutes with ligand in the absence or presence of test articles at 10 μM. After the incubation period, samples were filtered through glass fiber filters, the filters dried and then counted for radioactivity using a scintillation counter. Results are expressed as mean percent inhibition of control radioligand binding.
Binding IC50. To determine the binding IC50 in the D2 receptor assays, HEK-293 were tested as described above but with varying concentrations of test article. Compound A was tested at 0.01-30 μM in the D2S radioligand binding assay. […] Compound 1 was assayed at 0.03-100 μM in both the D2S and D2L assays, while Compound 2 was tested at 0.03-100 μM in the D2S assay and 0.01-100 μM in the D2L assays. The IC50 was defined as the concentration causing a half-maximum inhibition of control specific binding.

[4] = molecular target: T3, α1A adrenergic receptor (Homo sapiens, UniProt P35348); assay: α1A adrenergic receptor antagonist assay (calcium mobilization, CHO cells); format: cell-based
T3 construct: host or cells: CHO cells
T3 sequence (P35348 1-466): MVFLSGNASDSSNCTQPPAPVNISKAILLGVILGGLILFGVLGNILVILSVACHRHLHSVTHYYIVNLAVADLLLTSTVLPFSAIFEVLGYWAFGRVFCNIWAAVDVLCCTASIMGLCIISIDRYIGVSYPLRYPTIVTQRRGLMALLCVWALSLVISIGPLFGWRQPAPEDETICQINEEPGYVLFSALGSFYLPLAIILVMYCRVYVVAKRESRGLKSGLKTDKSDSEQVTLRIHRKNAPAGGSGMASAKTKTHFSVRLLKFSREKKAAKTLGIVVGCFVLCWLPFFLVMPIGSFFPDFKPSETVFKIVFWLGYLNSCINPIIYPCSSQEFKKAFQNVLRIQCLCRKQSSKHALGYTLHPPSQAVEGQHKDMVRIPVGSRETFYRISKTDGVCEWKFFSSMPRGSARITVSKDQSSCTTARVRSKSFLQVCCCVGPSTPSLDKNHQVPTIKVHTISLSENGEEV
Method: as §1
Antagonist activity. The antagonistic effects of test compounds on the α1A and α1B adrenergic receptors were measured using human receptor-transfected Chinese hamster ovary (CHO) cells. Antagonist activity was determined by measuring compound effect on agonist (epinephrine)-induced calcium mobilization in the α1A receptor assay or cAMP levels in the α1B receptor assay. In these experiments, CHO cells were incubated in duplicate at room temperature with test article and epinephrine at 3 nM in the α1A receptor assays or at 3000 nM in the α1B receptor assay. Compound A was tested in the α1A receptor assay at 0.01-30 μM. […] Compound 1 and Compound 2 were assayed at 0.03 to 30 μM in the α1A receptor assay and 0.03 to 100 μM in the α1B receptor assay. In the α1A receptor assay, cytosolic calcium levels were measured fluorometrically using the fluorescent probe, Fluo4 Direct. Intracellular cAMP levels in the α1B adrenergic receptor assay were measured by homogenous time-resolved fluorescence (HTRF). The antagonism IC50 was defined as the concentration causing a half-maximum inhibition of control agonist response.

[5] = CTG, read-out: NCI-H929.1051 120 h IC50
[6] = read-out: 0.01 μM Dex Combo IC50, H929-1051, Day 5, in combination with 0.01 μM dexamethasone
[7] = read-out: 0.1 μM Dex Combo IC50, H929-1051, Day 5, in combination with 0.1 μM dexamethasone
[8] = read-out: 1 μM Dex Combo IC50, H929-1051, Day 5, in combination with 1 μM dexamethasone
[9] = H929-1051, Day 5 Cell Titer-Glo, single agent, read-out: Single Agent IC50

T2 sequence (P14416 whole entry): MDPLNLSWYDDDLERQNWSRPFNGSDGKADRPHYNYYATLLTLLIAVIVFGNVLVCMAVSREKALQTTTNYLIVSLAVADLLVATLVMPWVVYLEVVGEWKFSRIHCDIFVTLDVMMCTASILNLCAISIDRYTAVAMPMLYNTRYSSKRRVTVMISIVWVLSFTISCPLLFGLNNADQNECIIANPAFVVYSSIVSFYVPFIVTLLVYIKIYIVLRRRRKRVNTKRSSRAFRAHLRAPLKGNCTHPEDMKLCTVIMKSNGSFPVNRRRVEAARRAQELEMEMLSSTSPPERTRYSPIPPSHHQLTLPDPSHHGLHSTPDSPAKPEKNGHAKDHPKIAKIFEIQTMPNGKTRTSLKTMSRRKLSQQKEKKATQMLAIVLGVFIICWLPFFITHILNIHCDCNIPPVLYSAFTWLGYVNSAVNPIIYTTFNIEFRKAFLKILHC
T1 sequence (P14416 1-414 isoform P14416-2): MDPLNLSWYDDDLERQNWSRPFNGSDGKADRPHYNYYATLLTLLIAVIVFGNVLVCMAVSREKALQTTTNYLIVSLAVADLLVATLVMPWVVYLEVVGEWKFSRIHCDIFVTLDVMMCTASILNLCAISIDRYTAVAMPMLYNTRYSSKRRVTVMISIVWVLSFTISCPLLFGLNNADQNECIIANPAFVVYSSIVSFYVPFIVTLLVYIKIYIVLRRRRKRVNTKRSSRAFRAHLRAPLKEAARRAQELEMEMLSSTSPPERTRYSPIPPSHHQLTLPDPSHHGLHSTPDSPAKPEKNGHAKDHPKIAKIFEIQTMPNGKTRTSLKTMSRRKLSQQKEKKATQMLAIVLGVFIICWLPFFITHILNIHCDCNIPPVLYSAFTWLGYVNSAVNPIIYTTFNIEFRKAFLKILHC

| SMILES | D2S Agonism EC50 ([1]; impedance, versus dopamine control) | IC50 [2, 5] [nM] | IC50 [3] [nM] | inhibition at 10 µM ([3]; read-out: D2L % Inhibition (10 μM)) [%] | IC50 [4] [nM] | EC50 [1] [nM] | potency of single agent versus pomalidomide-dexamethasone combination ([2]; H929-1051) [fold] | IC50 [2, 6] [nM] | IC50 [2, 7] [nM] | IC50 [2, 8] [nM] | IC50 [2, 9] [nM] | EC50 ([1]; impedance, versus dopamine control, read-out: D2S Agonism EC50) | D2L % Inhibition (10 μM) ([3]; 10 μM) [%] | IC50 ([3]; read-out: D2L Binding IC50) [nM] | IC50 ([4]; epinephrine 3 nM, calcium mobilization, read-out: Antagonism IC50 α1A) [nM] |
| --- | --- | --- | --- | --- | --- | --- | --- | --- | --- | --- | --- | --- | --- | --- | --- |
| N#Cc1ccc(N2CCN(Cc3ccc(COc4cccc5c4CN(C4CCC(=O)NC4=O)C5=O)cc3)CC2)c(F)c1 (racemic) [Compound 1, 4-(4-(4-(((2-(2,6-dioxopiperidin-3-yl)-1-oxoisoindolin-4-yl)oxy)methyl)benzyl)piperazin-1-yl)-3-fluorobenzonitrile] | Negative | 2.5 | 2300 | 55 | 980 | – | – | – | – | – | – | – | – | – | – |
| N#Cc1ccc(N2CCN(Cc3ccc(COc4cccc5c4CN([C@H]4CCC(=O)NC4=O)C5=O)cc3)CC2)c(F)c1 [Compound 2, (S)-4-(4-(4-(((2-(2,6-dioxopiperidin-3-yl)-1-oxoisoindolin-4-yl)oxy)methyl)benzyl)piperazin-1-yl)-3-fluorobenzonitrile] | – | 1 | ~3000 | – | 580 | > 10000 | 10 | 0.41 | 0.0429 | 0.018 | 0.98 | – | – | – | – |
| O=C1CC[C@H](N2Cc3c(OCc4ccc(CN5CCN(c6ccc(F)cc6F)CC5)cc4)cccc3C2=O)C(=O)N1 [Compound B] | – | – | – | – | – | – | – | – | – | – | – | 2700 nM and 1900 nM | 103 | 84 | 6.4 |
| Nc1cccc2c1C(=O)N(C1CCC(=O)NC1=O)C2=O (stereo not shown) [Pomalidomide, pomalidomide] | – | – | – | – | – | – | – | 3840 | 118 | 18.8 | > 10000 | – | – | – | – |
